What was measured:
[1] = test system: mbVEGFR2 mRNA; assay: Real-time PCR of mbVEGFR2 mRNA after morpholino transfection of HUVECs; assay type: cell-based, human; conditions: GAPDH as internal control, compared with DPBS transfected HUVECs
Excerpt: (§1) In addition, two polyadenylation sites (AAUAAA) are found in intron13 (FIG. 1A). […] FIG. 1(a) illustrates a schematic design of anti-sense morpholino oligomers. FIGS. 1(b, c) show the results of mbVEGFR2 and sVEGFR2 mRNA expression quantified by real-time PCR after morpholino transfection. All results are normalized by GAPDH expression and compared with DPBS transfected HUVECs as 1. p: risk factor by two-tail student's t-test. *: p<0.05, **p<0.01, ***p<0.001 compared with DPBS transfected HUVECs; n=6 for all groups; Error bar is ±s.e.m. It is thus concluded that human polyadenylation of sVEGFR2 mRNA occurs in intron13, and thus the present disclosure examines whether disruption of splicing between exon13-exon14 upregulates sVEGFR2.
(§2) It was discovered that VEGFR2_MOe13 downregulates mbVEGFR2 mRNA by 40% (p<0.05), while VEGFR2_MOi13 upregulates mbVEGFR2 mRNA by 2.5-fold (p<0.01) compared with DPBS transfected HUVECs.
(§3) Each morpholino oligomer was purchased from Gene Tools (Philomath, Oreg.). […] The cells were washed three times and fluorescence was detected by a FACScan Analyzer (BD Biosciences, San Jose, Calif.). […]
(§4) cDNAs were synthesized from 400 ng total RNA using Omniscript RT kit (Qiagen, Valencia, Calif.) and Oligo-dT primer(dT20) according to the manufacturer's instructions. Real-time PCR was performed using QuantiTect SYBR Green PCR Kit (Qiagen, Valencia, Calif.) and 1 μl of cDNA. […]

[2] = test system: sVEGFR2 mRNA; assay: Real-time PCR of sVEGFR2 mRNA after morpholino transfection of HUVECs; assay type: cell-based, human; conditions: GAPDH as internal control, compared with DPBS transfected HUVECs, p<0.001
Excerpt: as §1, §2, §3, §4

[3] = test system: sVEGFR2 mRNA; assay: RT-PCR analysis of sVEGFR2 mRNA from HUVECs two days after morpholino transfection; assay type: cell-based, human
Procedure: To limit the possibility of genomic contamination, VEGFR2exon10_F (designed in exon10) and VEGFR2_R (designed in intron13) were used for primers to detect sVEGFR2.
(§5) Each morpholino oligomer was purchased from Gene Tools (Philomath, Oreg.). The sequences of each morpholino oligomer and primers for PCR are listed in supplemental Table. HUVECs (Lonza, Walkersville, Md.) were cultured in EBM with EGM SingleQuot Kit supplements and growth factors according to the manufacturer's instructions (Lonza, Walkersville, Md.). MS-1 cells, a mouse endothelial cell line (ATCC, Manassas, Va.) were cultured in 5% FBS/DMEM. Morpholino oligomers were delivered to the nucleus by nucleofection (Amaxa, Gaithersburg, Md.) with a Basic Nucleofector Kit for Primary Mammalian Endothelial Cells (Amaxa, Gaithersburg, Md.) using program A-034 for HUVEC and MS-1 cells. For each nucleofection, 1×10^6 cells were used and plated on a 6-well plate. After 2 days of culture, cells were trypsinized and total RNA was extracted using a RNeasy mini kit (Qiagen, Valencia, Calif.) with DNaseI treatment. Detection of mbVEGFR2 was achieved by flow cytometry. […] The cells were washed three times and fluorescence was detected by a FACScan Analyzer (BD Biosciences, San Jose, Calif.). […]

[4] = test system: mbVEGFR2 protein; assay: Western blot for mbVEGFR2 from morpholino transfected HUVECs; assay type: cell-based, human; conditions: compared to DPBS and STD_MO
Procedure: (§6) Next, mbVEGFR2 protein expression by western blot was examined. VEGFR2_MOe13 or a combination of VEGFR2_MOe13 and VEGFR2_MOi13 reduced mbVEGFR2 protein expression compared to DPBS and STD_MO. […] (f) HUVECs stained with only secondary antibody were used as a negative control. […] To confirm sVEGFR2 protein expression, western blot from culture medium of morpholino transfected HUVECs was performed using an antibody recognizing the extracellular domains of VEGFR2 (FIG. 5). […] It is known that mbVEGFR2 can be glycosylated, thus increasing the molecular weight from 150 kD to 230 kD. In addition, sVEGFR2 has been detected at 160 kDa, although it has not reported whether this was derived from alternative polyadenylation or proteolytic cleavage from mbVEGFR2. Based on this information, it is likely that sVEGFR2 protein, upregulted following morpholino treatment, is glycosylated with an observed molecular weight of 150 kDa.
(§7) After nucleofection, cells were cultured in a 75 cm^2 flask for three days without changing the medium. After three days the media was collected and cell debris was removed by centrifugation. Trichloroacetic acid (20% (w/v), Fisher Scientific, Pittsburgh, Pa.) was added to concentrate the supernatant (final concentration of trichloroacetic acid was 10%). Cells were incubated in trichloroacetic acid for 30 minutes on ice and then centrifuged at ×12000 g 4° C. for 5 minutes. […]

[5] = test system: mbVEGFR2 protein; assay: Flow cytometry analysis of mbVEGFR2 protein on cell surfaces of transfected HUVECs; assay type: cell-based, human; conditions: flow cytometry three days after nucleofection, DPBS 83.3%
Procedure: as §6
Each morpholino oligomer was purchased from Gene Tools (Philomath, Oreg.). The sequences of each morpholino oligomer and primers for PCR are listed in supplemental Table. HUVECs (Lonza, Walkersville, Md.) were cultured in EBM with EGM SingleQuot Kit supplements and growth factors according to the manufacturer's instructions (Lonza, Walkersville, Md.). […] The cells were washed three times and fluorescence was detected by a FACScan Analyzer (BD Biosciences, San Jose, Calif.). […]

[6] = test system: sVEGFR2 protein; assay: Western blot of culture medium of morpholino transfected HUVECs against VEGFR2 extracellular domain; assay type: cell-based, human; conditions: three days, antibody to VEGFR2 extracellular domains
Procedure: as §6, §7

[7] = test system: sVEGFR2 mRNA; assay: Long-range 3'RACE from morpholino transfected HUVECs; assay type: cell-based, human
Procedure: To determine the 3′UTR of sVEGFR2 mRNA induced by morpholinos, long-range 3′RACE was performed (FIG. 5C). A strong band (˜1600 bp) was detected from VEGFR2_MOe13 and the combination of VEGFR2_MOe13 and VEGFR2_MOi13 transfected HUVECs. Based on the sequence of this band, sVEGFR2 mRNA utilizes a polyadenylation site located in 1403-1408 nt range of intron13 (FIG. 6B). […] These sequence components are similar to typical polyadenylation signals, which contain a cleavage site 10-35 nt downstream of AAUAAA and a GU-rich region 14-70 nt downstream of AAUAAA. […] Corneal tissue is known to predominantly express sVEGFR2.
cDNA was synthesized from total RNA extracted from morpholino transfected HUVEC using a cloning_R1 (Table 1). PCR was performed using a LongRange PCR Kit (Qiagen, Valencia, Calif.). PCR conditions: 93° C. for 3 minutes, 35 cycles of 93° C. for 15 seconds, 55° C. for 30 seconds and 68° C. for 6 minutes using VEGFR2_F1 and cloning_R2. After 1% agarose gel electrophoresis, specific bands were excised and subjected to DNA sequencing. To determine endogenous 3′UTR of sVEGFR2 mRNA, total RNA extracted from one human cornea which was obtained from the Utah Lions Eye Bank. cDNA was synthesized with the same above method, and PCR was performed using cloning_F(1042-1061) which is designed in human VEGFR2 intron13 and cloning_R2.

[8] = test system: laser-induced choroidal neovascularization (CNV); assay: Laser-induced choroidal neovascularization (CNV) in mouse; assay type: in vivo; conditions: 2 μl intravitreously day 1 and day 4: 100 ng/μl moVEGFR2_MOe13, 500 ng/μl anti-mouse VEGF-A IgG, 2 ng/μl SU1498, CNV volume day 7
Procedure: It was also examined whether moVEGFR2_MOe13 inhibits laser-induced choroidal neovascularization (CNV). Each morpholino or DPBS was injected intravitreously on day 1 and day 4 after laser photocoagulation, and laser CNV volumes were examined on day 7. […] Vessel endothelial cells were stained with Alexa fluor488 conjugated isolectin GS-IB4. […] After photocoagulation, on day 1 and day 4, 2 ul of 100 ng/μl STD_MO, 500 ng/μl Goat IgG (AB-108-C, R&D Systems, Minneapolis, Minn.), 100 ng/μl moVEGFR2_MOe13, 500 ng/μl Goat Anti-mouse VEGF-A IgG (AF-493-NA, R&D Systems, Minneapolis, Minn.) or 2 ng/μl SU1498 (572888, EMD chemicals, Gibbstown, N.J.) was injected intravitreously. On day 7, CNV volumes were measured by confocal microscope. n=14-20 for each group. Risk factors (p-value) were calculated by two-tail student's t-test (*: p<0.05, **p<0.01). Error bar is ±s.e.m.
as §5

| Molecule | downregulation of mbVEGFR2 mRNA ([1]; p<0.05) [%] | increase of sVEGFR2 mRNA [2] [fold] | detection of sVEGFR2 mRNA by RT-PCR [3] | mbVEGFR2 protein expression by western blot [4] | mbVEGFR2 positive cells [5] [%] | sVEGFR2 protein in culture medium by western blot [6] | 3'RACE band (~1600 bp) corresponding to sVEGFR2 mRNA using the polyadenylation site in intron13 [7] | suppression of CNV compared with anti-VEGF-A IgG and SU1498 (FIG. 9) [8] | upregulation of mbVEGFR2 mRNA ([1]; p<0.01) [fold] |
| --- | --- | --- | --- | --- | --- | --- | --- | --- | --- |
| 5′-gatccagaattgtctccctacCTAG-3′ (antisense GATCCAGAATTGTCTCCCTACCTAG; all phosphorodiamidate morpholino (PMO)) [VEGFR2_MOe13, antisense morpholino oligomer corresponding to the junction of exon13-intron13 of human VEGFR2] | 40 | 17 | detected | reduced | 40.7 | 150 kD bands were detected | strong band | – | – |
| CC(C)c1cc(/C=C(\C#N)C(=O)NCCCc2ccccc2)cc(C(C)C)c1O [SU1498, reference compound] | – | – | – | – | – | – | – | inhibitory effects | – |
| 5′-CCACACGCTctagacacacaaaaag-3′ (antisense CCACACGCTCTAGACACACAAAAAG; all phosphorodiamidate morpholino (PMO)) [VEGFR2_MOi13, antisense morpholino oligomer corresponding to the junction of intron13-exon14 of human VEGFR2] | – | 4.4 | detected | – | 82.5 | could not detect | did not show a strong band | – | 2.5 |
